Data as given in patent US7252936B2 (priority 1994, dated 2007).

Experiments:
[1] = system: M. tuberculosis strains with Aspartic acid 516 changed into Valine or Tyrosine; assay type: cell-based
M. tuberculosis = assay: microbe, parasite or virus in culture; assay type: cell-based; conditions: Mycobacterium tuberculosis, read-out: MIC (Minimal Inhibitory Concentration)

With `CO[C@H]1/C=C/O[C@@]2(C)Oc3c(C)c(O)c4c(c3C2=O)C2=NC3(CCN(CC(C)C)CC3)NC2=C(NC(=O)/C(C)=C\C=C\[C@H](C)[C@H](O)[C@@H](C)[C@@H](O)[C@@H](C)[C@H](OC(C)=O)[C@@H]1C)C4=O` [rifabutin] the “Resistance or sensitivity of strains with the mutation” value [1] was “sensitivity to rifabutin is maintained”.
With `CO[C@H]1/C=C/O[C@@]2(C)Oc3c(C)c(O)c4c(O)c(c(/C=N/N5CCN(C)CC5)c(O)c4c3C2=O)NC(=O)/C(C)=C\C=C\[C@H](C)[C@H](O)[C@@H](C)[C@@H](O)[C@@H](C)[C@H](OC(C)=O)[C@@H]1C` [rifampicin] the MIC (M. tuberculosis) was over 2 µg/mL.
